Assay results reported in patent publication US12161643B2, “Stable formulations of SHR0302” (ARCUTIS BIOTHERAPEUTICS, INC., priority 2021, dated 2024).

Tests used:
[1] = target: JAK1 (Homo sapiens, UniProt P23458); conditions: cited from earlier work
[2] = Solubility of SHR0302 in water at varying pH values in phosphate and citrate buffer systems; format: physicochemical; conditions: FIG. 2
Experimental: The solubility of SHR0302 was determined in water at varying pH values in various buffer systems. FIG. 2 illustrates a plot of SHR0302 concentration in μg/mL in water as a function of pH in two phosphate buffer systems and a citrate buffer system.

[3] = Solubility of SHR0302 in water at varying pH values in a phosphate buffer; format: physicochemical; conditions: phosphate buffer system; FIG. 1
Experimental: The solubility of SHR0302 was determined in water at varying pH values in a phosphate buffer. FIG. 1 illustrates a plot of SHR0302 (also known as ARQ-250) concentration in μg/mL in water as a function of pH in a phosphate buffer system.

Sequence of JAK1 (P23458 whole entry): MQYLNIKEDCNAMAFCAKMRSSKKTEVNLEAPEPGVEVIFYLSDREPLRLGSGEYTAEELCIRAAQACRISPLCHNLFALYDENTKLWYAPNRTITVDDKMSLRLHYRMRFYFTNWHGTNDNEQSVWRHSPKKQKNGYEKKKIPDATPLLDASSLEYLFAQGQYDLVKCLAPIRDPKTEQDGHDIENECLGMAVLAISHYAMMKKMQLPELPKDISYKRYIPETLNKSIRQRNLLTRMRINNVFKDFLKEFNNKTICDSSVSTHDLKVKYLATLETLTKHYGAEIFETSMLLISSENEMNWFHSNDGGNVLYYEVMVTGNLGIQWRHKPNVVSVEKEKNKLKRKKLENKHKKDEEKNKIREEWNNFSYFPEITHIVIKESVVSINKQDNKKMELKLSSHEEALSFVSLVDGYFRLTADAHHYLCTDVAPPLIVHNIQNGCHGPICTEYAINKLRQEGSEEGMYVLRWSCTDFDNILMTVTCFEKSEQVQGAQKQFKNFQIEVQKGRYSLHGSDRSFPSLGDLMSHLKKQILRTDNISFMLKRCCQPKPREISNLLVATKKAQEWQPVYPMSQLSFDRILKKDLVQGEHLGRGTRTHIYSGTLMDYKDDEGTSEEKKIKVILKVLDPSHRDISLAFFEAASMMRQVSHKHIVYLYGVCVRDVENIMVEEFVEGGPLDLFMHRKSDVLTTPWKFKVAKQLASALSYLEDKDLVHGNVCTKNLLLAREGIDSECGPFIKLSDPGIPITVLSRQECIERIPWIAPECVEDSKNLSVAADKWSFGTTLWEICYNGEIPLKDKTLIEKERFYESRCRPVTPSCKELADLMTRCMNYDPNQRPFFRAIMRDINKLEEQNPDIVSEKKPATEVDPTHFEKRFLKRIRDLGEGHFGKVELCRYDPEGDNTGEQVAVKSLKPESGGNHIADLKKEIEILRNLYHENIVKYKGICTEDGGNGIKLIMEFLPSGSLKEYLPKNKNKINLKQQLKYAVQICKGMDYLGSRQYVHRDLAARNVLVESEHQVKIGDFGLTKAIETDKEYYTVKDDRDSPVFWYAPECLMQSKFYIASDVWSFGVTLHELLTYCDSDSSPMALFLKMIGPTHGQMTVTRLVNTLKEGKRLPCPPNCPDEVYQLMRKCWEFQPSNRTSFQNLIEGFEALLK

solubility in water as a function of pH [2]: decreases as pH levels increase
solubility in water as a function of pH [3]: decreases as pH levels increase
SMILES: COc1nsc(NC(=O)N2C[C@H]3C[C@H](N(C)c4ncnc5[nH]ccc45)C[C@H]3C2)n1 [SHR0302, (3aR,5S,6aS)—N-(3-methoxyl-1,2,4-thiadiazol-5-yl)-5-(methyl(7H-pyrrolo[2,3-d]pyrimidin-4-yl)amino)hexahydrocyclopenta[c]pyrrole-2(1H)-carboxamide]
selectivity for JAK1 over JAK2 ([1]; JAK1 over JAK2): high selectively for JAK1 over JAK2
inhibition of JAK1 [1]: potent
